Results on one compound are retold here after patent publication US11358931B2, “Selective androgen receptor modulators (SARMs) and uses thereof” (priority 2007, dated 2022).

SMILES strings stand for the structures.

A word on the NOAEL: it is the highest dose or exposure tested at which no adverse effect was seen.

Series [1] can be described thus: 14-day oral toxicity study in cynomolgus monkeys. To be noted: cynomolgus monkey, in vivo, oral, cynomolgus monkeys, nasal gavage once daily 14 days. In kind it is in vivo, cynomolgus monkey. As for the experimental part: (§1) A study was performed to determine any potential toxicity and the toxicokinetic profile of Compound 102 when administered orally (via nasal gavage) to cynomolgus monkeys for at least 14 days. The cynomolgus monkey was chosen for this study as it is a non-rodent species that is commonly used for non-clinical toxicity evaluations. Use of the monkey model maximized the likelihood of identifying toxicological responses that may occur in humans. Ten experimentally naïve cynomolgus monkeys (5 male and 5 female) from about 2.5 to 3 years of age and weighing between about 2.3 to about 2.8 kg at Day −1 of the study were assigned to dose groups as shown in Table 6 below.
(§2) All animals were dosed via nasal gavage once daily for 14 consecutive days. The first day of dosing was designated Day 1 for all animals. The animals were evaluated for clinical signs (evaluation of mortality and morbidity, twice daily), cage side observations and food consumption (once daily), body weight (Days 1, 8 and 14), physical examination (Day −5 and post dosing following the 13/24 hour toxicokinetic collection on Day 14), ophthalmic examination (prestudy and owing the Day 13/24 hour toxicokinetic collection on Day 14), and clinical pathology parameters (serum chemistry, hematology and coagulation on Days −3 and 14), urine samples were collected during necropsy (Day 15) for urinalysis. Blood samples were collected for toxicokinetic analysis at 1, 2, 4, 8, 12 and 24 hours post dose on Days 1 and 13.
(§3) All ten animals were euthanized one day after the last dose. At termination, a full necropsy was conducted on all animals, and tissues were collected, preserved, processed and examined microscopically by an American College of Veterinary Pathologists (ACVP) certified pathologist.
(§4) Vehicle was composed of PEG 400/Tween® 80/PVP-K30 (90/5/5, w/w/w). Appropriate amounts of Compound 102 were added to vehicle to prepare the suspension of test compound administered to the animals
(§5) Blood samples for evaluation of serum chemistry, hematology and coagulation parameters were collected from all animals on Days −3 and 14. Urine samples were obtained by bladder puncture during necropsy. The animals were fasted for at east 8 hours prior to blood collections for serum chemistry. Serum chemistry parameters included alanine aminotransferase (ALT), total protein, aspartate aminotransferase (AST), alkaline phosphatase (ALP), gamma-glutamyltransferase (GGT), albumin, globulin, albumin/globulin ratio, lactate dehydrogenase (LD), glucose, total bilirubin, cholesterol, urea nitrogen (BUN), creatinine, triglycerides, sodium, calcium, potassium, phosphorus, chloride and carbon dioxide. Hematology parameters included red blood cell count, hemoglobin concentration, hematocrit, mean corpuscular volume (MCV), mean corpuscular hemoglobin concentration (MCHC), mean corpuscular hemoglobin (MCH), red cell distribution width, reticulocyte count, platelet count, mean platelet volume (MPV) and white blood cell count. Coagulation parameters included prothrombin time (PT) and activated partial thromboplastin time. Urinalysis parameters included color/character, specific gravity, pH, protein, glucose, ketones, bilirubin, occult blood and microscopics.

For series [2], the system named is cynomolgus monkeys. The experiment in a line: 14-day oral toxicity study in cynomolgus monkeys. It counts as in vivo, cynomolgus monkey. As for the experimental part:
as §1, §2, §3, §4, §5

In series [1] (female, females), `N#Cc1ccc(N2CCC[C@@H]2[C@@H](O)C(F)(F)F)cc1C(F)(F)F` [Compound 102, R,R-4-(2-(1-Hydroxyl-2,2,2-trifluoroethyl)-pyrrolidinyl)-2-trifluoromethyl-benzonitrile] registered an NOAEL at 14 days of 150 mg/kg. In series [1] (male, males), this compound returned an NOAEL at 14 days of 450 mg/kg. The “platelet counts lower on Day 14 relative to Day −3” value in series [2] (5, 50 and 150 mg/kg males and females and 450 mg/kg female) was 14% to 38%. The serum cholesterol concentration result in series [2] (Day 14, all dosed animals) was “decreased”. In series [2] (Day 14, all dosed animals except the 5 mg/kg female), the “prothrombin time longer than Day −3” value lay within 1.8 to 3.5 s. Besides, in series [2] (all dose levels), the “microscopic findings (histopathology)” value was “no direct Compound 102-related microscopic findings”, the ophthalmic examinations entry is “no Compound 102-related findings” and the urinalysis parameters entry was “no Compound 102-related effects”. Further, the body weight entry in series [2] (all dosed animals relative to controls) was “dose-independent increase in body weight”. Also, the gross necropsy findings entry in series [2] (both sexes at 150 and 450 mg/kg) was “decreased thymus size and brown discoloration of the adrenals”. For the same compound, the NOEL result in series [2] (cynomolgus monkeys, 14 days) is recorded as “not achieved”. For the same compound, the “mortality, clinical signs, food consumption, histologic effects” value in series [2] (daily administration for 14 days, all dose levels) is “did not result in mortality, adverse clinical signs or changes in food consumption or histologic effects”. Besides, in series [2] (female animal dosed with 450 mg/kg, after 14 days), the “serum ALT and AST activity” value is recorded as “elevated”. For the same compound, the thymus histology entry in series [2] (males at 150 mg/kg and above, females at 50 mg/kg and above, considered secondary to stress) is given as “Minimal to mild lymphoid cortical depletion of the thymus”.
